Results reported in US20120165326A1, “DERIVATIVES OF 6-(6-SUBSTITUTED-TRIAZOLOPYRIDAZINE-SULFANYL) 5-FLUORO BENZOTHIAZOLES AND 5-FLUORO BENZIMIDAZOLES, PREPARATION THEREOF, USE THEREOF AS DRUGS, AND USE THEREOF AS MET INHIBITORS” (SANOFI, priority 2009, published 2012).

Experiments:
[1] = target: T1, MET (Homo sapiens, UniProt P08581); experiment: Test B: Inhibition of autophosphorylation of MET; ELISA technique (pppY1230,1234,1235) in MKN45 cells; assay type: cell-based; parameters: Inoculated MKN45 cells in 96-well plates; endogenous in cells; host or cells: MKN45 cells; settings: 1 hour treatment, phosphoMET ELISA
Procedure: B) Test B: Inhibition of autophosphorylation of MET; ELISA technique (pppY1230,1234,1235)
a) Cell lysates: Inoculated MKN45 cells in 96-well plates (Cell coat BD polylysine) to a rate of 20 000 cells/well in 200 μl in RPMI medium+10% FCS+1% L-glutamine. Leave to adhere for 24 hours in an incubator.
The cells are treated the day after inoculation with the products at six concentrations in duplicate for 1 hour. At least three control wells are treated with the same amount of final DMSO.
Product dilution: Stock at 10 mM in pure DMSO—range from 10 mM to 30 μM with an increment of 3 in pure DMSO—Intermediate 50-fold dilutions in the culture medium, followed by removal of 10 μl added directly to the cells (200 μl): final range from 10 000 to 30 nM.
At the end of incubation, delicately remove the supernatant and rinse with 200 μl of PBS. Next, place 100 μl of lysis buffer directly in the wells on ice and incubate at 4° C. for 30 minutes. Lysis buffer: 10 mM Tris-HCl pH 7.4, 100 mM NaCl, 1 mM EDTA, 1 mM EGTA, 1% Triton X-100, 10% glycerol, 0.1% SDS, 0.5% deoxycholate, 20 mM NaF, 2 mM Na3VO4, 1 mM PMSF and anti-protease cocktail.
The 100 μl of lysates are transferred into a V-bottomed polypropylene plate and ELISA is performed directly or the plate is frozen at −80° C.,
b) ELISA PhosphoMET SicSource Kit KH00281
Add 70 μl of kit dilution buffer+30 μL of cell lysates or 30 μl of lysis buffer for the blanks to each well of the kit plate. Incubate for 2 hours with gentle rocking at room temperature.
Rinse the wells four times with 400 μl of kit washing buffer. Incubate with 100 μl of anti-phospho MET antibody for 1 hour at room temperature.
Rinse the wells four times with 400 μL of kit washing buffer. Incubate with 100 μl of anti-rabbit HRP antibody for 30 minutes at room temperature (except for the wells with chromogen alone).
Rinse the wells four times with 400 μl of kit washing buffer. Introduce 100 μl of chromogen and incubate for 30 minutes in the dark at room temperature.
Stop the reaction with 100 μl of stop solution. Take the reading without delay, at […] 0.1 second on a Wallac Victor plate reader.
Target sequence in this assay (P08581 25-1390): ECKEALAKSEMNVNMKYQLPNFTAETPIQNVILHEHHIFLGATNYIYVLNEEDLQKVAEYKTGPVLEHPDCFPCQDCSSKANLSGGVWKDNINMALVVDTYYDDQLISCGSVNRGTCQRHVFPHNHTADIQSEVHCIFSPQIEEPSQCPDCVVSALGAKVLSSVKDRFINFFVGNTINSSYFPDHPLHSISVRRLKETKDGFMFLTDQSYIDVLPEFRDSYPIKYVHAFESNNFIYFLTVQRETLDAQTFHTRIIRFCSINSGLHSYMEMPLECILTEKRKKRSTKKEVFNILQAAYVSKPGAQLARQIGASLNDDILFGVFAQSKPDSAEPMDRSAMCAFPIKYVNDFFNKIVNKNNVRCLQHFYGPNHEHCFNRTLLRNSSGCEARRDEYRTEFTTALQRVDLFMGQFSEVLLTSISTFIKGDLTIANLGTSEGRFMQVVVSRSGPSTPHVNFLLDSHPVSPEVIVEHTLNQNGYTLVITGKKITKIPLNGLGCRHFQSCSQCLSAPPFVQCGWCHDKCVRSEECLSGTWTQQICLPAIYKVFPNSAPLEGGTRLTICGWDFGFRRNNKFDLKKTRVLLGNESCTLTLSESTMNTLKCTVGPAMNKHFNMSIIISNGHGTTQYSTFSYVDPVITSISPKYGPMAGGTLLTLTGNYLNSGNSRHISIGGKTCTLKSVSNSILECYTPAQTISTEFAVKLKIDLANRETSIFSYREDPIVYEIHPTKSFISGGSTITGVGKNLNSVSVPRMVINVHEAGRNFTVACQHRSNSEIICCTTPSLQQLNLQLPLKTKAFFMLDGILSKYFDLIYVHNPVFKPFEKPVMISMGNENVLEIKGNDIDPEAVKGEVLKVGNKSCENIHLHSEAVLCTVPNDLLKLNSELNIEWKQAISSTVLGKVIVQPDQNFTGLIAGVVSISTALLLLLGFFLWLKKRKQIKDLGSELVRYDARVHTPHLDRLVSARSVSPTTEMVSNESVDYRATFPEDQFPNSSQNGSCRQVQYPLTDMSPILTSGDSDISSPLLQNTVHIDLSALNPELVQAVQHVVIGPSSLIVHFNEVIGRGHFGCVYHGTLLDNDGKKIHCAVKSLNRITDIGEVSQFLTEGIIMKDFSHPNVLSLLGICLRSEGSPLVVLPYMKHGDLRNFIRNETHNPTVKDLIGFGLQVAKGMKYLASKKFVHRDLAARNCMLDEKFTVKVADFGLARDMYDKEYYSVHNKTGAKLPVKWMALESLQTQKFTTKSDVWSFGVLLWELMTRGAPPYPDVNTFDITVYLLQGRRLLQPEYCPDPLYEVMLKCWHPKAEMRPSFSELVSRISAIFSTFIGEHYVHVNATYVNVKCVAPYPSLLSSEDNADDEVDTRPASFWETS

[2] = tested on: HCT116 cells and MKN45 cells; experiment: Test C: Measurement of the cell proliferation via a 14C-thymidine pulse; assay type: cell-based; settings: 14C-thymidine incorporation, 96 hours of treatment; cell line (HCT116 or MKN45) not stated
Procedure: C) Test C: Measurement of the Cell Proliferation Via a 14C-Thymidine Pulse
The cells are inoculated in Cytostar 96-well plates in 180 μl for 4 hours at 37° C. and 5% CO2: HCT116 cells at a rate of 2500 cells per well in DMEM medium+10% foetal calf serum+1% L-Glutamine and MKN45 cells at a rate of 7500 cells per well in RPMI medium+10% foetal calf serum+1% L-Glutamine. After these 4 hours of incubation, the products are added in 10 μl as a 20-fold concentrated solution according to the dilution method cited for ELISA. The products are tested at 10 concentrations in duplicate from 10 000 nM to 0.3 nM with an increment of 3.
After 72 hours of treatment, add 10 μl of 14C-thymidine at 10 μCi/ml to obtain 0.1 μCi per well. The incorporation of 14C-thymidine is measured on a Micro-Beta machine (Perkin-Elmer) after 24 hours of pulse and 96 hours of treatment.
All the test steps are automated on BIOMEK 2000 or TECAN stations.

[3] = target: T1, MET; experiment: Test A: HTRF MET test in 96-well format; assay type: biochemical; parameters: The recombinant DNA His-Tev-MET (956-1390) in pFastBac; His (N, cleaved yes); TEV cleavage site (N); made in house; host or cells: SF21 insect cells (baculovirus, pFastBac); settings: ATP 10 μM, MET 5 nM
Procedure: The recombinant DNA His-Tev-MET (956-1390) in pFastBac (invitrogen) is transfected into insect cells and, after several viral amplification steps, the final baculovirus stock is tested for expression of the protein of interest.
For the production of autophosphorylated protein, the preceding fractions are incubated for 1 hour at room temperature after addition of ATP 2 mM, MgCl2 2 mM, and Na3VO4 4 mM. After stopping the reaction with 5 mM of EDTA, the reaction mixture is injected onto a HiPrep desalting column (GE HealthCare) pre-equilibrated with buffer A+Na3VO4 4 mM, and the fractions containing the protein of interest (SDS PAGE analysis) are pooled and stored at −80° C. The degree of phosphorylation is checked by mass spectrometry (LC-MS) and by peptide mapping.
A) Test A: HTRF MET test in 96-well format
In a final volume of 50 μl of enzymatic reaction, MET 5 nM final is incubated in the presence of the test molecule (for a final concentration range of 0.17 nM to 10 μM, DMSO 3% final) in MOPS 10 mM pH 7.4, DTT 1 mM, 0.01% Tween 20 buffer. The reaction is initiated with the substrate solution to obtain final concentrations of poly-(GAT) 1 μg/ml, ATP 10 μM and MgCl2 5 mM. After incubation for 10 minutes at room temperature, the reaction is stopped with a mix of 30 μl to obtain a final solution of Hepes 50 mM pH 7.5, potassium fluoride 500 mM, 0.1% BSA and EDTA 133 mM in the presence of 80 ng of streptavidin 61SAXLB Cis-Bio Int. and 18 ng of anti-phosphotyrosine Mab PT66-Europium Cryptate per well. After incubation for 2 hours at room temperature, the reading is taken at two wavelengths, 620 nm and 665 nm, on a reader for the TRACE/HTRF technique and the percentage of inhibition is calculated from the 665/620 ratios.
Target sequence in this assay (P08581 956-1390): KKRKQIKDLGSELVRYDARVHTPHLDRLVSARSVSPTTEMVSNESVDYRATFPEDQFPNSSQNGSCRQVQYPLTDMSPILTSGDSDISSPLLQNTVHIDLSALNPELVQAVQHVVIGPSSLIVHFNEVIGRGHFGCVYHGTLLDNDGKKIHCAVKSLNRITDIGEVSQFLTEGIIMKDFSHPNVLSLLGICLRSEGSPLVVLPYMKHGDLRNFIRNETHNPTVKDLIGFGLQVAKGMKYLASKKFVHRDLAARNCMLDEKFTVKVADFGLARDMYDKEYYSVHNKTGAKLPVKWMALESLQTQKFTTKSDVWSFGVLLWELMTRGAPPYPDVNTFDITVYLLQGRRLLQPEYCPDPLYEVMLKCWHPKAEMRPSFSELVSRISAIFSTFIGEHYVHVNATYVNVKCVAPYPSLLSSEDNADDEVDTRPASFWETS

| IC50 [1] | IC50 [2] | IC50 [3] | SMILES |
| --- | --- | --- | --- |
| < 100 nM | < 1000 nM | < 100 nM | O=C(NCCN1CCOCC1)Nc1nc2cc(F)c(Sc3nnc4ccc(OC5CCCCC5)nn34)cc2s1 [Example 1, 1-(6-{[6-(Cyclohexyloxy)[1,2,4]triazolo[4,3-b]pyridazin-3-yl]sulfanyl}-5-fluoro-1,3-benzothiazol-2-yl)-3-[2-(morpholin-4-yl)ethyl]urea] |
| < 100 nM | < 1000 nM | < 100 nM | CC(C)(C)OC(=O)Nc1nc2cc(F)c(Sc3nnc4ccc(-c5ccc(F)cc5)nn34)cc2s1 [Example 2, 2-Methylpropan-2-yl (5-fluoro-6-{[6-(4-fluorophenyl)[1,2,4]triazolo[4,3-b]pyridazin-3-yl]sulfanyl}-1,3-benzothiazol-2-yl)carbamate] |
| < 100 nM | < 1000 nM | < 100 nM | Nc1nc2cc(F)c(Sc3nnc4ccc(-c5ccc(F)cc5)nn34)cc2s1 [Example 3, 5-fluoro-6-{[6-(4-fluorophenyl)[1,2,4]triazolo[4,3-b]pyridazin-3-yl]sulfanyl}-1,3-benzothiazol-2-amine] |
| < 100 nM | < 1000 nM | < 100 nM | O=C(NCCN1CCOCC1)Nc1nc2cc(F)c(Sc3nnc4ccc(-c5ccc(F)cc5)nn34)cc2s1 [Example 4, 1-(5-fluoro-6-{[6-(4-fluorophenyl)[1,2,4]triazolo[4,3-b]pyridazin-3-yl]sulfanyl}-1,3-benzothiazol-2-yl)-3-[2-(morpholin-4-yl)ethyl]urea] |
| < 100 nM | < 1000 nM | < 100 nM | O=C(NCCN1CCOCC1)Nc1nc2cc(F)c(Sc3nnc4ccc(NC5CC5)nn34)cc2s1 [Example 5, 1-(6-{[6-(cyclopropylamino)[1,2,4]triazolo[4,3-b]pyridazin-3-yl]sulfanyl}-5-fluoro-1,3-benzothiazol-2-yl)-3-[2-(morpholin-4-yl)ethyl]urea] |
| < 100 nM | < 1000 nM | < 100 nM | O=C(NCCN1CCOCC1)Nc1nc2cc(F)c(Sc3nnc4ccc(NC5CCCCC5)nn34)cc2s1 [Example 6, 1-(6-{[6-(cyclohexylamino)[1,2,4]triazolo[4,3-b]pyridazin-3-yl]sulfanyl}-5-fluoro-1,3-benzothiazol-2-yl)-3-[2-(morpholin-4-yl)ethyl]urea] |
| < 100 nM | < 1000 nM | < 100 nM | CCOc1ccc2nnc(Sc3cc4sc(NC(=O)CN5CCN(C6CC6)CC5)nc4cc3F)n2n1 [Example 7, 2-(4-cyclopropylpiperazin-1-yl)-N-{6-[(6-ethoxy[1,2,4]triazolo[4,3-b]pyridazin-3-yl)sulfanyl]-5-fluoro-1,3-benzothiazol-2-yl}acetamide] |
| < 100 nM | < 1000 nM | < 100 nM | O=C(CN1CCN(C2CC2)CC1)Nc1nc2cc(F)c(Sc3nnc4ccc(OC5CCC5)nn34)cc2s1 [Example 8, N-(6-{[6-(cyclobutyloxy)[1,2,4]triazolo[4,3-b]pyridazin-3-yl]sulfanyl}-5-fluoro-1,3-benzothiazol-2-yl)-2-(4-cyclopropylpiperazin-1-yl)acetamide] |
| < 100 nM | < 1000 nM | < 100 nM | CCOc1ccc2nnc(Sc3cc4sc(NC(=O)CN5CCN(CC)CC5)nc4cc3F)n2n1 [Example 9, N-{6-[(6-ethoxy[1,2,4]triazolo[4,3-b]pyridazin-3-yl)sulfanyl]-5-fluoro-1,3-benzothiazol-2-yl}-2-(4-ethylpiperazin-1-yl)acetamide] |
| < 100 nM | < 1000 nM | < 100 nM | CCN1CCN(CC(=O)Nc2nc3cc(F)c(Sc4nnc5ccc(OC6CCC6)nn45)cc3s2)CC1 [Example 10, N-(6-{[6-(Cyclobutyloxy)[1,2,4]triazolo[4,3-b]pyridazin-3-yl]sulfanyl}-5-fluoro-1,3-benzothiazol-2-yl)-2-(4-ethylpiperazin-1-yl)acetamide] |
| < 500 nM | – | < 500 nM | O=C(CN1CCN(C2CC2)CC1)Nc1nc2cc(F)c(Sc3nnc4ccc(OC5COC5)nn34)cc2s1 [Example 11, 2-(4-cyclopropylpiperazin-1-yl)-N-(5-fluoro-6-{[6-(oxetan-3-yl-oxy)[1,2,4]triazolo[4,3-b]pyridazin-3-yl]sulfanyl}-1,3-benzothiazol-2-yl)acetamide] |
